Data published in patent publication US20210369746A1, “ADMINISTRATION OF HYPOXIA ACTIVATED PRODRUGS IN COMBINATION WITH IMMUNE MODULATORY AGENTS FOR TREATING CANCER” (MOLECULAR TEMPLATES, INC., priority 2016, published 2021).

System: TRAMP-C2 and/or Panc02 pancreatic ductal adenocarcinoma cells
Test: Antitumor activity of TH-302 with immune modulating agents in mice xenografts
Format: in vivo
Conditions: single agent; TH-302 50 mg/kg i.p. every day for 5 days; tumor growth observed by IVIS
Protocol: 5×10^5 to 1×10^6 TRAMP-C2, C57BL/6J, B6, FVB F1 cells and/or Panc02 pancreatic ductal adenocarcinoma cells expressing luciferase are […] implanted s.c. on the right flank of albino or ODD-Luc reporter mice. The mice are treated with TH-302 alone (50 mg/kg i.p., every day for 5 days), either 1 week, 3 weeks or 16 weeks after TRAMP cell implantation, with a week of rest in between. Some mice are also treated with CTLA-4 blocking antibody 9H10, PD-1 blocking antibody RMP1-14 and/or agonistic […] antibody given i.p. on days 1, 4, 7 and days 13, 16 and 19 for one to three cycles. Mice are monitored for survival (log-rank, mantel-cox test) and tumor growth was observed by IVIS once a week up to 140 days after tumor implantation. The mice were then sacrificed and their organs were weighed and tumors were isolated, fixed in paraformaldehyde or acetone, embedded/mounted in OCT, frozen, sectioned, stained for hypoxia with anti-piminidazole FITC, GR-1 V450, CD11b Alexa 546, and/or F4/80 Alexa 647.

Cn1c(COP(=O)(NCCBr)NCCBr)cnc1[N+](=O)[O-] [TH-302]
tumor growth delay: produced a growth delay
